Experiments:
[1] = system: PLP139-151-induced relapsing-remitting EAE; assay: PLP139-151-induced relapsing-remitting EAE; parameters: species or system SJL mice; conditions: mouse, in vivo
Method: Method: CSF-1R inhibitors as described herein were tested in mouse relapsing-remitting multiple sclerosis (MS) model. […] Female […] mice 6 weeks old were purchased from Harlan and maintained for 1 week prior to beginning the experiment. Mice were randomly assigned into groups of 10 animals (plus the additional mice per group to be used for histology), and primed with 50 μg PLP139-151/CFA on Day 0. On Day 16-20 post disease induction (onset of remission), the experimental compounds in dose groups 2 and 3 were administered daily via gavage to the groups for a period of 3 weeks (with the final treatment on ˜Day 37-41 post disease induction). On Day 10 post disease induction (disease onset) treatment of group 4 began, and continued to the same day as groups 2 and 3 (˜Day 37-41 post disease induction). After administration of the test compounds, the mice were followed until Day 45 to assess clinical disease, delayed type hypersensitivity (DTH), and various in vitro immunological assays. Histological signs of disease at various time points during the disease course were also assessed. […]

[2] = system: Osteoclast precursor cells; assay: Osteoclast differentiation assay; assay type: cell-based
Method: Further, an osteoclast differentiation assay is used to assess the efficacy of Fms inhibitors for treating bone disease such as osteoarthritis. On day 0, Osteoclast Medium BulletKit (Lonza catalog # PT-8001, containing Media, FBS, L-Glutamine, PenStrep, RANKL, and M-CSF) media is thawed and the FBS, L-glutamine and PenStrep from the kit is added to 100 mL of Osteoclast Precursor Basal medium to provide the Osteoclast Precursor Growth Medium (OPGM). This is warmed to 37° C. Osteoclast precursor cells (Lonza catalog #2T-110) frozen in cryovial are warmed to 37° C. and transferred to a 50 mL conical tube. The cryovial is rinsed with OPGM and added dropwise to the conical tube of cells with swirling, then the volume is adjusted to 20-30 mL with addition of OPGM. The cells are centrifuged at 200×g for 15 minutes at room temperature and all but approximately 3 mL of supernatant is removed to a new conical tube. The cells are suspended in the remaining supernatant and the volume is adjusted to 10-15 mL with OPGM added dropwise with swirling. The cells are centrifuged at 200×g for 15 minutes at room temperature and all but approximately 1 mL of supernatant is removed. The cells are resuspended in the remaining supernatant, counted, and the volume adjusted with an appropriate amount of OPGM to provide approximately 1×10^5 cells/mL. A 0.1 mL aliquot of cells is added to each well of a 96-well plate. Compound to be tested is prepared in DMSO for plating at a high concentration of 2.5 mM, with 8 point 1:3 serial dilutions. A 1 μL aliquot of each compound dilution is added to a 96 well v-bottom polypropylene plate and 0.124 mL of OPGM is added to the compound. Then 50 μL of the compound in OPGM is added to the osteoclast precursor cells in 96-well plate (providing highest test concentration of 5 μM). RANKL (2 μg) from the BulletKit is reconstituted in 1 mL of OPGM, then vortexed and centrifuged briefly. A 792 μL aliquot of RANKL is added to 6 mL of OPGM and 50 μL is added to low control wells. Then 76.6 μL M-CSF ([…]) from the BulletKit is added to the remaining 5.8 mL of OPGM/RANKL solution (4×RANKL/M-CSF/OPGM). A 50 μL aliquot of this is added to the remaining wells, and the remainder is stored at 4° C. for later use. The plate is incubated at 37° C. for 6 days, then the remaining OPGM/RANKL/M-CSF solution is warmed to 37° C. The remaining approximately 198 μL is combined with 6 mL of OPGM. The media is aspirated from the osteoclast wells and 100 μL of RANKL/OPGM is added to the low controls. The remaining RANKL/OPGM is combined with the approximately 18.5 μL of remaining M-CSF. The remaining 4×RANKL/M-CSF/OPGM from day 0 is diluted to 1× and combined with the freshly prepared solution. A 0.1 mL aliquot of this is added to each osteoclast well and incubated for 37° C. for 1 day. The Acid Phosphatase kit (Cayman Chemical catalog #10008051) is warmed to room temperature. The assay buffer is diluted 5 mL with 45 mL of water. For each plate, two substrate tablets are dissolved in 4.5 mL of the assay buffer, mixing by vortex to break up the tablet. Stop solution is diluted 12 mL with 36 mL of water. In a tissue culture hood, 20 μL of each osteoclast well supernatant is transferred to a 96 well plate. A 30 μL aliquot of the substrate solution is added to each well and incubated at 37° C. for 20 minutes, then added […] stop solution to each well. The absorbance of each well is read at 405 nm on Safire plate reader. The absorbance reading is plotted vs. concentration to provide the IC50 for each compound.

SMILES	clinical scores after discontinuation of therapy [1]	IC50 [2]
CCCCCCCCc1ccc(CCC(N)(CO)CO)cc1 [FTY-720]	rapid rebound of clinical scores	–
Cc1cnc2[nH]cc(Cc3ccc(NCc4ccc(C(F)(F)F)nc4)nc3)c2c1 [Compound P-2019, [5-(5-Methyl-1H-pyrrolo[2,3-b]pyridin-3-ylmethyl)-pyridin-2-yl]-(6-trifluoromethyl-pyridin-3-ylmethyl)-amine]	–	< 100 nM
